Laboratory results from US20110046107A1, “SULFONYL-SUBSTITUTED CARBAPENEM COMPOUNDS” (priority 2007, published 2011).
Converted amounts (≈) assume the structure as drawn. Read-outs that look alike come from different tables or passages of the source.

What was measured:
[1] = tested on: Citrobacter freundii; experiment: In vitro antibacterial activity, agar dilution method (clinical isolates); format: cell-based; settings: clinically isolated strains, Gram-negative
Source text: (§1) Bacterial strains for test: All the bacterial strains are clinical isolates and purchased from public organizations. methicillin-sensitive staphylococcus aureus (MS SA), methicillin-resistant staphylococcus aureus (MRSA), methicillin-sensitive staphylococcus epidermidis (MSSE), methicillin-resistant staphylococcus epidermidis (MRSE), streptococcus pyogenes, penicillin-sensitive streptococcus pneumoniae (PSSP), penicillin-resistant streptococcus pneumoniae (PRSP), Escherichia coli, Citrobacter freundii, Enterobacter cloacae, Hemophilus influenza, Klebsiella pneumonia (producing ESBL), Morganella morganii, Proteus mirabilis, Serratia marcescens, and Pseudomonas aeruginosa.
(§2) Drugs to be tested: compounds of the invention prepared in the examples; the chemical names, structural formulae, preparation materials, and preparation methods are provided in the preparation examples of the compounds;
(§3) Meropenem (Meropenem for injection), Ertapenem (Ertapenem for injection), and Doripenem (Doripenem for injection) commercially available
(§4) Experimental method: the agar dilution method, by reference to Methodology of Pharmacological Experiment (XU Shuyun et al, published by the Peoples Medical Publishing House, 1st Edition, August, 1982; 3rd Edition, 5th printing, January 2002, p 1659-1660).

[2] = tested on: Enterobacter cloacae; experiment: as above; format: cell-based; settings: read-out: MIC90 Enterobacter cloacae
Source text: as §1, §2, §3, §4

[3] = tested on: Escherichia coli; experiment: as above; format: cell-based; settings: clinically isolated strains, Gram-negative, read-out: MIC90 E. coli
Source text: as §1, §2, §3, §4

[4] = tested on: Hemophilus influenza; experiment: as above; format: cell-based; settings: read-out: MIC90 Hemophilus influenza
Source text: as §1, §2, §3, §4

[5] = tested on: Klebsiella pneumonia (producing ESBL); experiment: as above; format: cell-based; settings: Klebsiella pneumoniae; clinically isolated strains (producing ESBL), Gram-negative, agar dilution; read-out: MIC90 Klebsiella pneumonia
Source text: as §1, §2, §3, §4

[6] = tested on: Morganella morganii; experiment: as above; format: cell-based; settings: clinically isolated strains, Gram-negative
Source text: as §1, §2, §3, §4

[7] = tested on: Proteus mirabilis; experiment: as above; format: cell-based; settings: clinically isolated strains, Gram-negative, agar dilution, read-out: MIC90 Proteus mirabilis
Source text: as §1, §2, §3, §4

[8] = tested on: Pseudomonas aeruginosa; experiment: as above; format: cell-based; settings: clinically isolated strains, Gram-negative
Source text: as §1, §2, §3, §4

[9] = tested on: Serratia marcescens; experiment: as above; format: cell-based; settings: read-out: MIC90 Serratia marcescens
Source text: as §1, §2, §3, §4

[10] = tested on: methicillin-resistant staphylococcus aureus (MRSA); experiment: as above; format: cell-based; settings: clinically isolated strains, Gram-positive, read-out: MIC90 S. aureus MRSA
Source text: as §1, §2, §3, §4

[11] = tested on: methicillin-resistant staphylococcus epidermidis (MRSE); experiment: as above; format: cell-based; settings: clinically isolated strains, Gram-positive, read-out: MIC90 S. epidermidis MRSE
Source text: as §1, §2, §3, §4

[12] = tested on: methicillin-sensitive staphylococcus aureus (MSSA); experiment: as above; format: cell-based; settings: read-out: MIC90 S. aureus MSSA
Source text: as §1, §2, §3, §4

[13] = tested on: methicillin-sensitive staphylococcus epidermidis (MSSE); experiment: as above; format: cell-based; settings: read-out: MIC90 S. epidermidis MSSE
Source text: as §1, §2, §3, §4

[14] = tested on: penicillin-resistant streptococcus pneumoniae (PRSP); experiment: as above; format: cell-based; settings: clinically isolated strains, Gram-positive, read-out: MIC90 S. pneumoniae PRSP
Source text: as §1, §2, §3, §4

[15] = tested on: penicillin-sensitive streptococcus pneumoniae (PSSP); experiment: as above; format: cell-based; settings: clinically isolated strains, Gram-positive, read-out: MIC90 S. pneumoniae PSSP
Source text: as §1, §2, §3, §4

[16] = tested on: streptococcus pyogenes; experiment: as above; format: cell-based; settings: clinically isolated strains, Gram-positive, read-out: MIC90 S. pyogenes
Source text: as §1, §2, §3, §4

[17] = Pharmacokinetic study of the compounds in SD rat (intravenous injection); format: in vivo, SD male rats; settings: in vivo
Procedure: Test drugs: the compound 1, 6, 8 and 9 prepared in the examples
Control drugs: Meropenem (Meropenem for injection), commercially available; Doripenem (Doripenem for Injection).
Internal standard substance: Warfarin, a white powder, purity 99%, batch number: 0072-8501, provided by Shanghai Institute for Drug Control.
Drug formulation: the test drugs were formulated before use by being dissolved in physiological saline to make a final concentration of 5 mg/mL for intravenous injection.
Test animal: SD male rats, weight: 200˜250 g, purchased from SHANGHAI SLAC LABORATORY ANIMAL CO. LTD.
Drug administration: The SD male rats were randomly divided into five groups with 3 in each group, and given the drugs by intravenous injection at a dose of 10 mg/kg. The animals were weighed before administration.
Collection of Samples: Zero time was marked before administration; 0.5 mL of blood was respectively sampled from orbit venous plexus at 5 min, 15 min, 30 min, 45 min, 1 h, 2 h, 4 h, 6 h, 8 h, 24 h after administration into heparinized centrifuge tubes. The samples were centrifuged for 6 minutes at 8000 rpm and the supernatant plasma was separated. The plasma was frozen at −20° C. for LC-MS/MS analysis.
Chromatographic conditions: column: Gemini C6-Phenyl (50 mm×4.6 mm, 5 μm); mobile phase: 0.1% of formic acid-water-acetonitrile (5:35:60, v/v/v); flow rate: 1 mL/min; column temperature: 35-40° C.; injection volume: 5 μL; split ratio: 1/5.
Mass spectrometer conditions: scanning mode: cation multiple reactions monitoring (MRM); ion source: electrospray ionization (ESI); Nebulize gas: 8 L/min; Curtain gas: 8 L/min; Collision gas: 4 L/min; Ionspray voltage: 4500 v; Temperature: 400° C./500° C.
Preparation of the Standard Curve and Quality-Control Sample: a Suitable Amount of the test drug was weighed precisely and then formulated into a stock solution (2.6 mg/mL) with ultrapure water. The stock solution was diluted with methanol to obtain a series of working solutions in a concentration of 25000, 5000, 2500, 500, 250 and 50 ng/mL, respectively. 100 μL of plasma samples were separately added into 20 μL of said working solutions to obtain the calibration solutions in a concentration of 5000, 1000, 500, 100, 50 and 10 ng/mL. By the same method, the quality-controlled sample solutions in a concentration of 4000, 800 and 20 ng/mL can be prepared. A standard curve was obtained by chromatographic analysis of the samples.
Sample preparation: 20 μL of acetonitrile and 200 μL (200 ng/mL) of Warfarin in acetonitrile were added into 100 μL of plasma sample, then spun for 1 minute and centrifuged for 5 minutes at 15000 rpm. 100 μL of the supernatant was taken, where 3 μL aliquot of the supernatant was used for the LC/MS/MS analysis.
Dosing concentration: The accuracy of the drug concentration in dosing solution for intravenous injection was 103.2%, determined by analysis of the formulated drugs using HPLC and comparison with the standards.
Data analysis: The drug concentration in plasma would be considered as zero if under the detection limit (10 ng/mL). The pharmacokinetics parameters were calculated by the non-compartment model using Winnonlin Professional 5.2 pharmacokinetics software.
Pharmacokinetics: The pharmacokinetics parameters and drug concentration-time curve were obtained by measuring the plasma drug concentration at different time points.

[18] = cited from earlier work
[19] = clinically isolated strains, Gram-negative, agar dilution
[20] = SD male rats, intravenous injection 10 mg/kg, plasma, X ± SD, n = 3, read-out: t1/2 (half lives) (converted)
[21] = clinically isolated strains, Gram-positive, agar dilution

Row | SMILES | MIC90 [1] [µg/mL] | MIC90 [3] [µg/mL] | MIC90 [4, 19] [µg/mL] | MIC90 [5] [µg/mL] | MIC90 [6] [µg/mL] | MIC90 [7] [µg/mL] | MIC90 [8] [µg/mL] | MIC90 [10] [µg/mL] | MIC90 [11] [µg/mL] | MIC90 [14] [µg/mL] | MIC90 [15] [µg/mL] | MIC90 [16] [µg/mL] | half-life [17, 20] [min] | MIC90 [2, 19] [µg/mL] | MIC90 [4] [µg/mL] | MIC90 [9, 19] [µg/mL] | MIC90 [12, 21] [µg/mL] | MIC90 [13, 21] [µg/mL] | further results
1 | CCCCN(CCCC)S(=O)(=O)N1CC(SC2=C(C(=O)O)N3C(=O)[C@H]([C@@H](C)O)[C@H]3[C@H]2C)C1 [Compound 8, (4R,5S,6S)-3-[1-(N,N-dibutylaminosulfonyl)-azetidin-3-yl]thio-6-[(1R)-1-hydroxyethyl]-4-methyl-7-oxo-1-aza-bicyclo-[3.2.0]hept-2-ene-2-carboxylic acid] | 0.016 (≈ 0.0327 µM) | 0.016 (≈ 0.0327 µM) | 0.125 (≈ 0.255 µM) | 0.032 (≈ 0.0654 µM) | 0.032 (≈ 0.0654 µM) | 0.063 (≈ 0.129 µM) | 8 (≈ 16.3 µM) | 8 (≈ 16.3 µM) | 8 (≈ 16.3 µM) | 1 (≈ 2.04 µM) | 0.004 (≈ 0.00817 µM) | 0.004 (≈ 0.00817 µM) | 16.2 ± 1.8 |  |  |  |  |  | MIC90 [2]: 0.125 µg/mL (≈ 0.255 µM); MIC90 [9]: 0.125 µg/mL (≈ 0.255 µM); MIC90 [12]: 0.125 µg/mL (≈ 0.255 µM); MIC90 [13]: 0.125 µg/mL (≈ 0.255 µM)
2 | C[C@@H](O)[C@H]1C(=O)N2C(C(=O)O)=C(SC3CN(S(=O)(=O)NCC(O)CN)C3)[C@H](C)[C@H]12 (stereo partly drawn) [Compound 9, (4R,5S,6S)-3-[1-(2-hydroxy-3-aminopropylaminosulfonyl)-azetidin-3-yl]thio-6-[(1R)-1-hydroxyethyl]-4-methyl-7-oxo-1-aza-bicyclo-[3.2.0]-hept-2-ene-2-carboxylic acid] |  |  |  |  |  |  |  |  |  |  |  |  | 19.2 ± 3.6 |  |  |  |  |  | 
3 | C[C@@H](O)[C@H]1C(=O)N2C(C(=O)O)=C(S[C@@H]3CN[C@H](CNS(N)(=O)=O)C3)[C@H](C)[C@H]12 [doripenem, Doripenem, reference compound] | 0.063 (≈ 0.15 µM) | 0.063 (≈ 0.15 µM) |  | 0.125 (≈ 0.297 µM) | 0.063 (≈ 0.15 µM) | 0.5 (≈ 1.19 µM) | 8 (≈ 19 µM) | 16 (≈ 38 µM) | 16 (≈ 38 µM) | 1 (≈ 2.38 µM) | 0.016 (≈ 0.038 µM) | 0.008 (≈ 0.019 µM) |  | 0.025 (≈ 0.0595 µM) | 0.5 (≈ 1.19 µM) | 0.25 (≈ 0.595 µM) | 0.125 (≈ 0.297 µM) | 0.125 (≈ 0.297 µM) | half-life ([17]; male, SD, iv, 10 mg/kg): 6.6 ± 0.6 min; half-lives in human body [18]: about 1 h
4 | C[C@@H](O)[C@H]1C(=O)N2C(C(=O)O)=C(SC3CN(S(N)(=O)=O)C3)[C@H](C)[C@H]12 [Compound 1, (4R,5S,6S)-3-[N-aminosulfonyl-azetidin-3-yl]thio-6-[(1R)-1-hydroxyethyl]-4-methyl-7-oxo-1-aza-bicyclo-[3.2.0]hept-2-ene-2-carboxylic acid] | 0.016 (≈ 0.0424 µM) | 0.008 (≈ 0.0212 µM) |  | 0.032 (≈ 0.0848 µM) | 0.032 (≈ 0.0848 µM) | 0.63 (≈ 1.67 µM) | 4 (≈ 10.6 µM) | 4 (≈ 10.6 µM) | 4 (≈ 10.6 µM) | 0.5 (≈ 1.32 µM) | 0.008 (≈ 0.0212 µM) | 0.004 (≈ 0.0106 µM) | 19.2 ± 1.2 | 0.063 (≈ 0.167 µM) | 0.063 (≈ 0.167 µM) | 0.063 (≈ 0.167 µM) | 0.032 (≈ 0.0848 µM) | 0.063 (≈ 0.167 µM) | 
5 | C[C@@H](O)[C@H]1C(=O)N2C(C(=O)O)=C(SC3CN(S(=O)(=O)N(C)C)C3)[C@H](C)[C@H]12 [Compound 6, (4R,5S,6S)-3-[1-(N,N-dimethylaminosulfonyl)-azetidin-3-yl]-thio-6-[(1R)-1-hydroxyethyl]-4-methyl-7-oxo-1-aza-bicyclo-[3.2.0]hept-2-ene-2-carboxylic acid] | 0.063 (≈ 0.155 µM) | 0.016 (≈ 0.0395 µM) | 0.25 (≈ 0.617 µM) | 0.125 (≈ 0.308 µM) | 0.063 (≈ 0.155 µM) | 0.063 (≈ 0.155 µM) | 16 (≈ 39.5 µM) | 8 (≈ 19.7 µM) | 16 (≈ 39.5 µM) | 1 (≈ 2.47 µM) | 0.004 (≈ 0.00986 µM) | 0.008 (≈ 0.0197 µM) | 18 ± 1.8 | 0.25 (≈ 0.617 µM) |  | 0.063 (≈ 0.155 µM) | 0.063 (≈ 0.155 µM) | 0.063 (≈ 0.155 µM) | 
